Results published in PMC4879574, “Identification of Leishmania donovani Topoisomerase 1 inhibitors via intuitive scaffold hopping and bioisosteric modification of known Top 1 inhibitors” (Scientific Reports, 2016).

Target: T1, Human Top1 (HTop1) (Homo sapiens, UniProt P11387)
T1 construct: made in house; host or cells: Sf-9 insect cells infected with recombinant baculovirus (gift from Prof. J. J. Champoux)
T1 sequence (P11387 1-765): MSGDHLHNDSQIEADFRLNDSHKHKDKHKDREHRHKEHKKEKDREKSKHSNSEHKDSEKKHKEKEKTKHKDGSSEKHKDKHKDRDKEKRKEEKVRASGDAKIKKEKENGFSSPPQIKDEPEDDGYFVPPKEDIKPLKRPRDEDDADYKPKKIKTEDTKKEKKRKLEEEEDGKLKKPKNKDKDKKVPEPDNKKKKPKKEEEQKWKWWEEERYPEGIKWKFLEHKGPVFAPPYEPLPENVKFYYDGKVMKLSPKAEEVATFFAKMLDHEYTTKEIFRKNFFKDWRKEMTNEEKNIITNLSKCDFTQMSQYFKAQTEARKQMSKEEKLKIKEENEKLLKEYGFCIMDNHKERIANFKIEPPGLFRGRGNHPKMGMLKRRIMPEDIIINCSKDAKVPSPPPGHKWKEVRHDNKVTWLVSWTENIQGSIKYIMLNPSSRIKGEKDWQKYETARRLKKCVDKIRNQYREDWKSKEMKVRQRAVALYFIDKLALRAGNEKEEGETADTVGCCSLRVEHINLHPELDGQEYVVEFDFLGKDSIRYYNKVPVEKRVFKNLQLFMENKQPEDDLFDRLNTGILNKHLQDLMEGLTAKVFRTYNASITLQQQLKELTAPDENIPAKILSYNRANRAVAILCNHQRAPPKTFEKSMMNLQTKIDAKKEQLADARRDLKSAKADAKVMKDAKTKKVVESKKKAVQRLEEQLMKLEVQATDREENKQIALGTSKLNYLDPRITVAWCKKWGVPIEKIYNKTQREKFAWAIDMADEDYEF
Test: Plasmid DNA relaxation assay, HTop1
Format: biochemical
Settings: averages of three experiments, read-out: HTop1 inhibition (EC50)
Method: To investigate the inhibitory effect of our library compounds on the DNA relaxation activity of the recombinant Human and Leishmania topoisomerase 1 (Table 2), assays were performed involving supercoiled plasmid DNA, the enzymes (HTop1 and LdTop1) and our molecules. The enzymes were purified by the standard literature procedure.
The type I DNA topoisomerase are assayed by decreased mobility of the relaxed isomers of supercoiled pBS (SK^+) [pBlue-script (SK^+)] DNA in agarose gel. The relaxation assay was carried out as described previously with LdTop1B and HTop I, diluted in the relaxation buffer (25 mM Tris–HCl, pH 7.5, 5% glycerol, 0.5 mM DTT, 10 mM MgCl2, 50 mM KCl, […] and […] BSA) and supercoiled plasmid pBS (SK^+) DNA (85–95% were negatively supercoiled, with remainder being nicked circles)[9][28][29]. The reconstituted enzyme LdTop1B was assayed at 50 mM KCl concentration as described before. For all kinetic studies, the reaction mixtures containing the buffer and DNA were heated to 37 °C before addition of the enzymes. The reactions were rapidly quenched using stop solution and kept on ice. The gels were stained with ethidium bromide (EtBr) ([…]) and the amount of supercoiled monomer DNA band fluorescence were quantified by integration using Gel Doc 2000 under UV illumination (Bio-Rad Quantity One Software), as described previously.
The wild-type HTop1 (91 kDa) was purified from Sf-9 insect cells infected with the recombinant baculovirus (a kind gift from Prof. J. J. Champoux). Approximately, 1 * 10^9 Sf-9 cells were infected with the recombinant virus, and cells were harvested after 48-h of infection. The cells were lysed and enzyme was purified as described. Briefly, at 48 h post-infection, approximately 3 * 10^9 Sf-9 cells were harvested by centrifugation for 5 min at 400 * g. The cells were resuspended in 1 liter of ice-cold phosphate-buffered saline and centrifuged for 5 min at 400 * g. The nuclei were washed twice in 80 ml of lysis buffer minus Triton X-100 and resuspended in 40 ml of resuspension buffer (50 mM KCl, 10 mM Tris-Cl, pH 7.5, 2 mM MgCl2, 25 mM DTT, 0.4 mg/ml phenylmethylsulfonyl fluoride, 0.12 mg/ml aprotinin). The nuclear extract was stirred for 5 min at ~200 rpm. With continued stirring, 50 ml of polyethylene glycol (PEG) buffer (18% PEG 8000, 1 M NaCl, 10% glycerol) was added dropwise in order to precipitate the DNA. The PEG precipitate was pelleted by centrifugation and the resulting PEG supernatant was dialyzed against 4 liters of potassium phosphate buffer. The dialyzed PEG supernatant passed over a 10-ml bed volume of phosphocellulose (Whatman P11) equilibrated with PPB. The HTop1 flowed through the PS column and then passed over a Mono Q column followed by loaded onto a Mono S column. The Mono S column was eluted with a 25-ml 50–200 mM KPO4, pH 7.4, gradient. […] The peak Mono S fractions were pooled, concentrated with an Amicon ultrafiltration cell, dialyzed into storage buffer (50% glycerol, 10 mM Tris-hydrochloride, pH 7.5, 1 mM DTT, 1 mM EDTA), and stored at −20 °C.

EC50: > 100 µM
SMILES: Cc1cc2c(c(=O)[nH]1)C(=O)O/C2=C\c1ccc(O)c(O)c1 [Compound 4]
